{"source": "patent US12508300B2", "about": "“Acylated GLP-1 derivative” (Sciwind Biosciences Co., Ltd., priority 2019, dated 2025)", "target": "T1, trypsin (Bos taurus, UniProt P00760)", "T1 construct": "purchased Sigma T8003", "T1 sequence (P00760 24-246)": "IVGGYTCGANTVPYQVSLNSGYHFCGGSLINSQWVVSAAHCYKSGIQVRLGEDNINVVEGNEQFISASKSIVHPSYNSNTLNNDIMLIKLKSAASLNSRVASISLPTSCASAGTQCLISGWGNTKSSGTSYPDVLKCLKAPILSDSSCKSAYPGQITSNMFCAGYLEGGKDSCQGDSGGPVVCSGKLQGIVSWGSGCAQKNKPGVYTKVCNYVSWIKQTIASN", "test": "Trypsin degradation experiments", "assay_type": "in vitro ADME", "description": "Pepsin (3200-4500 U/mg protein, from Sigma, catalog number: P6887), trypsin (approximately […] protein, from Sigma, catalog number: T8003).\nB: Reaction buffer of trypsin: three 20 mM citric acid-phosphate buffers with different pH (4.0, 6.8, and 8.0) are prepared, then adding 0.005% Tween 20 and 0.001% BSA to prepare a reaction buffer of trypsin.\nD: Simulated intestinal fluid containing trypsin (SIF): obtained by taking 0.0684 g of potassium dihydrogen phosphate, adding 2.5 ml of water to dissolve it, adding 0.77 ml of 0.2M sodium hydroxide solution and 5 ml of water, and then adding and dissolving 0.1001 g of trypsin; the pH is measured as 6.82, then diluting by adding water to 10 ml.\nAn appropriate amount of the stock solution of the test sample is taken respectively, then diluting it to 0.06 mg/ml with reaction buffers of trypsin with different pH; each group of reaction solution is divided into 1 ml/tube, a total of 7 tubes, then mixing well and incubating in a 37° C. water bath for 30 min. […]\nHPLC assay is performed with samples from the enzyme degradation experiment. The peak area of the main peak of the sample without enzyme reaction at 0 point (recorded as −5 min) is used as the basal peak area, and the remaining percentage of the peak area of the main peak at different time points after enzyme addition is calculated.", "data": [{"compound": "CC[C@H](C)[C@H](NC(=O)[C@H](Cc1ccccc1)NC(=O)[C@H](CCC(=O)O)NC(=O)[C@H](CCCCNC(=O)COCCOCCNC(=O)COCCOCCNC(=O)CC[C@H](NC(=O)CCCCCCCCCCCCCCCCC(=O)O)C(=O)O)NC(=O)[C@H](C)NC(=O)[C@H](C)NC(=O)[C@H](CCC(N)=O)NC(=O)CNC(=O)[C@H](CCC(=O)O)NC(=O)[C@H](CC(C)C)NC(=O)[C@H](Cc1ccc(O)cc1)NC(=O)[C@H](CO)NC(=O)[C@H](CO)NC(=O)[C@@H](NC(=O)[C@H](CC(=O)O)NC(=O)[C@H](CO)NC(=O)[C@@H](NC(=O)[C@H](Cc1ccccc1)NC(=O)[C@@H](NC(=O)CNC(=O)[C@H](CCC(=O)O)NC(=O)C(C)(C)NC(=O)[C@@H](N)Cc1cnc[nH]1)[C@@H](C)O)[C@@H](C)O)C(C)C)C(=O)N[C@@H](C)C(=O)N[C@@H](Cc1c[nH]c2ccccc12)C(=O)N[C@@H](CC(C)C)C(=O)N[C@H](C(=O)N[C@@H](CCCNC(=N)N)C(=O)NCC(=O)N[C@@H](CCCNC(=N)N)C(=O)NCC(=O)O)C(C)C", "note": "[Semaglutide, N-ε^26-[2-(2-[2-(2-[2-(2[4-(17-carboxyheptadecanoylamino)-4(s)-carboxybutyrylamino]ethoxy)ethoxy]acetylamino)ethoxy]ethoxy)acetyl][Aib^8, Arg^34]GLP-1-(7-37) peptide]", "values": [{"measurement": "ability against trypsin degradation (in words)", "setting": "pH4.0", "value": "show the ability against trypsin degradation"}, {"measurement": "degradation rate by trypsin (in words)", "setting": "pH6.8 and 8.0, n=4, FIG. 6", "value": "basically the same"}]}]}
